Where “and” joins values, the source holds several entries; their conditions need not be identical. Equal entries are not always repeated. Where no end group is shown, it is not given here.
Experiments:
rat OA knee joints = assay: Rat papain/cysteine OA model, histology and modified Mankin score 8 weeks post-transplantation; format: in vivo
Experimental: (§1) FIG. 4a and FIG. 4b show the FITC-fluorescence-labeled BiFP without or with blocking peptide (FIG. 4a) and the DilC18-fluorescence-labeled rat MSCs (rMSCs) without or with delivery in BiFP (BiFP+rMSCs) (FIG. 4b) are intra-articularly injected into rat OA knee joints pre-established with papain/cysteine, respectively. The whole joint capsules are removed at 24 h post-injection, and articular surfaces of the distal femur are observed under a two-photon microscope. Representative images of second harmonic generation (SHG) signals in collagen and fluorescent signals of BiFP (FIG. 4a) and rMSCs (FIG. 4b) are shown (left). Quantification of overall fluorescence areas (right). FIG. 4c and FIG. 4d show the representative images of Hematoxylin and eosin (H&E) staining (FIG. 4c), and safranin-O/fast green staining (FIG. 4d) of distal femurs of sham-control or OA knee joints collected 8 weeks post-transplantation without or with BiFP, rMSCs, and rMSCs delivered in BiFP (BiFP+rMSCs). […] Bar=50 μm. The data are shown as mean±SD. * p<0.05, ** p<0.01 and **** p<0.0001 as determined by Student's t test (2 groups) or one-way ANOVA (≥3 groups).
Furthermore, after incubation with BiFP, MSCs are immediately injected into OA joints in a rat model, and the joints are subjected to histological examination 8 weeks post-transplantation.

hMSCs [1] = assay: Fluorescent peptide binding to hMSCs (confocal microscopy, imaging flow cytometry); format: cell-based, human; conditions: for binding to hMSCs: fluorescent peptide 0, 2.5, 10, 40 μM, 37° C.; for percentage of cells surrounded by FITC-conjugated BiFP (imaging flow cytometry): increasing concentration from 2.5 to 40 μM
Experimental: FIG. 2a and FIG. 2b show the results of the analysis of hMSCs binding to BiFP. The hMSCs were labeled with Hochest 33258, and incubated with FITC-labeled BiFP for 1 h, followed by imaging flow cytometry on an Amnis Imaging Cytometer (left). Bar=10 μm. Quantification of the percentage of BiFP-bound hMSCs (right).
The FITC-labeled BiFP or rhodamine-labeled collagen XII-targeting peptide (Col12-TP) are chemically synthesized by Biomertech (USA) or ABI (USA) to identify peptide binding by confocal microscopic observation. Briefly, for FITC-BiFP or rhodamine-Col12-TP treatment, 1×10^6 hMSCs incubated with 1 μM DilC18 in 37° C. for 10 min and then incubated in final 200 μl PBS with fluorescent peptide at 0, 2.5, 10, 40 μM in 37° C. for 30 min with gently mixing every 10 min. Cells are counterstained with mounting solution containing DAPI. Peptide fluorescence was taken using an ImageXpress Micro Confocal High Content Imaging system (Molecular Devices, Sunnyvale, CA, USA).

[2] = test system: chondrocyte line hiP cells; assay: Col12-TP binding to chondrocyte line hiP cells; format: cell-based
corneal epithelium = assay: Rat corneal epithelial injury model induced by n-heptanol; format: in vivo; conditions: one eye drop (20 μl); up to 2 weeks after injury
Experimental: FIG. 8a is the schematic flowchart of the experimental design for corneal epithelium regeneration by EGFP-expressing hMSCs without or with delivery in BiFP (BiFP+hMSCs) in the rat corneal epithelium damage model. […] Representative fluorescein-stained cornea images are shown at indicated time points (left). Quantification of the percentage of healed area was calculated using ImageJ Fiji software (right). * p<0.05, ** p<0.01 and *** p<0.001 as determined by One Way ANOVA. […] Bar=50 μm. […] Positive signal is visualized as brown color (DAB) and NC is negative control. Bar=50 μm. To further confirm the utility of BiFP as a cell carrier and expand the application of BiFP-delivered MSCs in corneal epithelial defect regeneration, a rat model of severe and corneal epithelial injury induced by repeated n-heptanol administration was utilized.

hMSCs [3] = assay: sGAG production in peptide-bound hMSCs (DMB dye); format: cell-based, human; conditions: compared to Col12-TP; at 2 weeks
Experimental: (§2) The hMSCs are incubated with Col12-TP or BiFP peptide for 1 h, and stained with Calcein-AM (green) and ethidium homodimer (magenta), followed by confocal microscopic observation (left). Bar=50 μm. The quantification of viable cell percentages (right). […] The hMSCs are stained with 1,9 dimethylmethlyene blue (DMB) dye and analyzed at OD 525 nm. Results are normalized by PicoGreen dsDNA quantitation. The data are shown as mean±SD. * p<0.05, ** p<0.01, *** p<0.001 and **** p<0.0001 as determined by Student's t test (2 groups) or the ANOVA (≥3 groups).

[4] = Particle size distribution by dynamic light scattering (DLS); format: physicochemical; conditions: 0.2 mg/ml in PBS at 25° C.
Experimental: (§3) The triple helix structure of BiFP, collagen, or denatured collagen peptides was measured at 0.2 mg/ml.
(§4) In the present invention, a bifunctional peptide (BiFP) is synthesized to prevent complicated chemical steps and improve efficiency. A 42-residue peptide (BiFP) with a sequence where GPOGPOGPOGPOGFOGERGPOGPOGPOGPODLQYWYPIWDTH, O is hydroxyproline, was prepared in PBS, pH 7.4 at 25° C. by Biomedical Translation Research Center (Taiwan). The triple helix structure of BiFP, collagen, or denatured collagen peptides was measured at 0.2 mg/ml, respectively. The particle size distribution of 0.2 mg/ml BiFP in PBS at 25° C. was examined by dynamic light scattering (DLS). […] Size was evaluated using dynamic light scattering: Malvern ZS90 zetasizer (Malvern Instruments Corp, Malvern, UK).

[5] = Circular dichroism (CD) spectroscopy of secondary structure; format: physicochemical; conditions: 0.2 mg/ml; PBS, pH 7.4
Experimental: as §3, §4

[6] = test system: intervertebral disc (IVD); assay: Rat intervertebral disc damage model induced by 20 G needle puncture; format: in vivo; conditions: rat tail
Description: FIG. 7a is the schematic flowchart of the experimental design for intervertebral disc (IVD) regeneration by PBS, BiFP, EGFP-expressing hMSCs without or with delivery in BiFP (BiFP+hMSCs) in the rat intervertebral disc damage model induced by 20 G needle puncture. The rats were sacrificed at the indicated time point. The rat tail tissues were subjected to X-Ray, T2-weighted MRI, Hematoxylin and eosin (H&E), Safranin O/fast green stain, immunohistochemistry and immunofluorescence analysis. […] FIG. 7d and FIG. 7e show the representative images of H&E staining and safranin-O/fast green staining of NP tissues, respectively. […] Positive signal is visualized as brown color (DAB). […] Cell nuclei were counterstained with 4′, 6-diamidino-2-phenylindole (DAPI). Bar=50 μm. […] X-ray, T2-weighted MRI and histological, histochemical and immunofluorescence analyses reveal the successful induction of IVD damage when compared PBS group with sham control group (FIG. 7b-7e).

hMSCs [7] = assay: Real-time RT-PCR of chondrogenic genes in peptide-bound hMSCs; format: cell-based, human; conditions: compared to Col12-TP; at 1 week
OA cartilage = assay: OA-specific targeting of labeled BiFP, two-photon microscopy of rat OA joints; format: in vivo; conditions: intra-articular injection, rat OA joint, 24 h post-injection
Experimental: as §1
Since BiFP can home to OA cartilage and the chondrogenesis-inducing ability of integrin α2β1 is likely to induce MSCs to undergo chondrogenesis, the BiFP is applied in the delivery of human MSCs to the OA cartilage surface for OA regenerative medicine.

hMSCs [8] = assay: WST-1 proliferation assay of peptide-bound hMSCs; format: cell-based, human; conditions: compared to Col12-TP
hMSCs [9] = assay: hMSC viability, Calcein-AM / ethidium homodimer staining; format: cell-based, human; conditions: compared to Col12-TP; 0, 2.5, 10, 40 μM
Experimental: as §2
For BiFP or Col12-TP treatment, 1×10^6 hMSCs incubated in final 200 μl PBS with peptide at 0, 2.5, 10, 40 μM in 37° C. for 30 mins with gently mixing every 10 min. Cells are stained with Calcein-AM (ThermoFisher) for live hMSCs and ethidium homodimer (Life Technologies) for dead hMSCs, respectively. Labeled hMSCs are visualized with ImageXpress Micro Confocal High Content Imaging system (Molecular Devices, Sunnyvale, CA, USA). Three independent images each group are counted live hMSCs and quantified.

Substance	histology (H&E, safranin-O) of OA knee joints (rat OA knee joints)	binding to hMSCs (hMSCs [1])	binding to collagen XII-expressing hiP cells [2]	corneal epithelial defect (fluorescein staining) (corneal epithelium)	synthesis of glycosaminoglycan (hMSCs [3])	particle size (main size) by dynamic light scattering [4]	conformation in solution by CD spectroscopy [5]	intervertebral disc regeneration / damage (T2 MRI, safranin-O) [6]	percentage of cells surrounded by FITC-conjugated BiFP (imaging flow cytometry) (hMSCs [1])	expression of chondrogenic genes sox9, col2a1 and aggrecan (hMSCs [7])	fluorescent signal (red dots) in OA cartilage (OA cartilage)	cell proliferation of hMSCs (hMSCs [8])	cell viability of hMSCs (hMSCs [9])
Col12-TP: collagen XII-targeting peptide of the applicant's previous application TW202128730 (DLQYWYPIWDTH; also: rhodamine-labeled) [reference compound]	still exhibited severe OA	cannot bind to hMSCs	can bind to Col12-TP	–	–	–	–	–	–	–	–	–	–
GPOGPOGPOGPOGFOGERGPOGPOGPOGPODLQYWYPIWDTH [BiFP]	still exhibited severe OA	can bind to hMSCs in a dose-dependent manner	–	remained markedly defective even 2 weeks after injury	enhance synthesis of glycosaminoglycan	~ 1.914 nm and 1.914 nm	stable triple-helical conformation	still exhibited severe IVD damage	increase in the percentage of cells surrounded by FITC-conjugated BiFP	increased expression of chondrogenic genes	apparent red dots are observed	increase	increase cell viability
GPOGPOGPOGPOGVMGFOGPOGPOGPOGPODLQYWYPIWDTH [BiFP containing a GVMGFO sequence]	–	can also bind to hMSCs	–	–	–	–	–	–	increase in the percentage of cells surrounded by FITC-conjugated BiFP	–	–	–	–
